Assay results taken from patent publication US11077128B2, “Selective inhibitors of Alpha2-containing isoforms of Na,K-ATPase and use thereof for reduction of intraocular pressure” (Yeda Research and Development Co. Ltd., priority 2015, dated 2021).

Assays:
[1] = tested on: human Na,K-ATPase α2β3FXYD1; experiment: biochemical; assay type: biochemical
[2] = target: human Na,K-ATPase α2β1FXYD1 (Homo sapiens, UniProt P50993); experiment: biochemical; assay type: biochemical
IOP in rabbits = experiment: Lowering of basal IOP in rabbits, topical; assay type: in vivo, New Zealand white rabbits; details: one drop of 1 mM solution, other eye PBS

SMILES	Selectivity Ki ratio α1β1/α2β3 [1]	Selectivity Ki ratio α1β1/α2β1 [2]	effect on lowering the basal IOP (IOP in rabbits)
CC1CN(CCC2CC2)CCC(O[C@@H]2C(C)O[C@@H](OC3C(C)OC(O[C@H]4CC[C@@]5(C)C(CCC6C5CC(O)[C@]5(C)[C@@H](C7=CC(=O)OC7)CC[C@]65O)C4)C[C@@H]3O)C[C@@H]2O)O1 (stereo in doubt) [DEcP, 4-((3S,5R,8R,9S,10S,12R,13S,14S,17R)-3-(((2S,4S,5R,6R)-5-(((2S,4S,5S,6R)-5-((4-(2-cyclopropylethyl)-2-methyl-1,4-oxazepan-7-yl)oxy)-4-hydroxy-6-methyltetrahydro-2H-pyran-2-yl)oxy)-4-hydroxy-6-methyltetrahydro-2H-pyran-2-yl)oxy)-12,14-dihydroxy-10,13-dimethylhexadecahydro-1H-cyclopenta[a]phenanthren-17-yl)furan-2(5H)-one]	10-12		
CC1CN(C(C)C)CCC(O[C@@H]2[C@H](C)O[C@@H](O[C@@H]3[C@H](C)O[C@@H](O[C@H]4CC[C@@]5(C)C(CCC6C5C[C@H](O)[C@]5(C)[C@@H](C7=CC(=O)OC7)CC[C@]65O)C4)C[C@@H]3O)C[C@@H]2O)O1 (stereo partly drawn) [DiP]		5.1	
CC1CN(C2CCCCC2)CCC(O[C@@H]2C(C)O[C@@H](OC3C(C)OC(O[C@H]4CC[C@@]5(C)C(CCC6C5CC(O)[C@]5(C)[C@@H](C7=CC(=O)OC7)CC[C@]65O)C4)C[C@@H]3O)C[C@@H]2O)O1 (stereo in doubt) [DcH, 4-((3S,5R,8R,9S,10S,12R,13S,14S,17R)-3-(((2S,4S,5R,6R)-5-(((2S,4S,5S,6R)-5-((4-cyclohexyl-2-methyl-1,4-oxazepan-7-yl)oxy)-4-hydroxy-6-methyltetrahydro-2H-pyran-2-yl)oxy)-4-hydroxy-6-methyltetrahydro-2H-pyran-2-yl)oxy)-12,14-dihydroxy-10,13-dimethylhexadecahydro-1H-cyclopenta[a]phenanthren-17-yl)furan-2(5H)-one]	10-12		
CC1CN(CS(C)(=O)=O)CCC(O[C@@H]2C(C)O[C@@H](OC3C(C)OC(O[C@H]4CC[C@@]5(C)C(CCC6C5CC(O)[C@]5(C)[C@@H](C7=CC(=O)OC7)CC[C@]65O)C4)C[C@@H]3O)C[C@@H]2O)O1 (stereo in doubt) [DMSM, 4-((3S,5R,8R,9S,10S,12R,13S,14S,17R)-12,14-dihydroxy-3-(((2S,4S,5R,6R)-4-hydroxy-5-(((2S,4S,5S,6R)-4-hydroxy-6-methyl-5-((2-methyl-4-((methylsulfonyl)methyl)-1,4-oxazepan-7-yl)oxy)tetrahydro-2H-pyran-2-yl)oxy)-6-methyltetrahydro-2H-pyran-2-yl)oxy)-10,13-dimethylhexadecahydro-1H-cyclopenta[a]phenanthren-17-yl)furan-2(5H)-one]		6.9	
CC1CN(C[Si](C)(C)C)CCC(OC2C(O)CC(OC3C(O)CC(OC4CCC5(C)C(CCC6C5CC(O)C5(C)C(C7=CC(=O)OC7)CCC65O)C4)OC3C)OC2C)O1 (stereo not drawn) [DTMS]	6.5	3	
CC1CN(C(C)(C)C)CCC(O[C@@H]2[C@H](C)O[C@@H](O[C@@H]3[C@H](C)O[C@@H](O[C@H]4CC[C@@]5(C)C(CCC6C5C[C@H](O)[C@]5(C)[C@@H](C7=CC(=O)OC7)CC[C@]65O)C4)C[C@@H]3O)C[C@@H]2O)O1 (stereo partly drawn) [DtB]	8.2	6.2	
CCN1CCC(O[C@@H]2[C@H](C)O[C@@H](O[C@@H]3[C@H](C)O[C@@H](O[C@H]4CC[C@@]5(C)C(CCC6C5C[C@H](O)[C@]5(C)[C@@H](C7=CC(=O)OC7)CC[C@]65O)C4)C[C@@H]3O)C[C@@H]2O)OC(C)C1 (stereo partly drawn) [DEt]	9.5	5.9	
C[C@H]1O[C@@H](O[C@H]2[C@@H](O)C[C@H](O[C@H]3[C@@H](O)C[C@H](O[C@H]4CC[C@@]5(C)[C@H](CC[C@@H]6[C@@H]5C[C@@H](O)[C@]5(C)[C@@H](C7=CC(=O)OC7)CC[C@]65O)C4)O[C@@H]3C)O[C@@H]2C)C[C@H](O)[C@@H]1O [Digoxin, digoxin, reference compound]			neither digoxin nor DiB had a significant effect
CCCN1CCC(O[C@@H]2[C@H](C)O[C@@H](O[C@@H]3[C@H](C)O[C@@H](O[C@H]4CC[C@@]5(C)C(CCC6C5C[C@H](O)[C@]5(C)[C@@H](C7=CC(=O)OC7)CC[C@]65O)C4)C[C@@H]3O)C[C@@H]2O)OC(C)C1 (stereo partly drawn) [DP]	8.8	4.8	
CC1CN(CC2CC(C)(C)C2)CCC(O[C@@H]2C(C)O[C@@H](OC3C(C)OC(O[C@H]4CC[C@@]5(C)C(CCC6C5CC(O)[C@]5(C)[C@@H](C7=CC(=O)OC7)CC[C@]65O)C4)C[C@@H]3O)C[C@@H]2O)O1 (stereo in doubt) [DMDMcB, 4-((3S,5R,8R,9S,10S,12R,13S,14S,17R)-3-(((2S,4S,5R,6R)-5-(((2S,4S,5 S,6R)-5-((4-((3,3-dimethylcyclobutyl)methyl)-2-methyl-1,4-oxazepan-7-yl)oxy)-4-hydroxy-6-methyltetrahydro-2H-pyran-2-yl)oxy)-4-hydroxy-6-methyltetrahydro-2H-pyran-2-yl)oxy)-12,14-dihydroxy-10,13-dimethylhexadecahydro-1H-cyclopenta[a]phenanthren-17-yl)furan-2(5H)-one]	10-12		
CC1CN(CC(N)=O)CCC(OC2C(O)CC(OC3C(O)CC(OC4CCC5(C)C(CCC6C5CC(O)C5(C)C(C7=CC(=O)OC7)CCC65O)C4)OC3C)OC2C)O1 (stereo not drawn) [DGlyN, reference compound]			coincides with other observations
CC1CN(C2CCCC2)CCC(O[C@@H]2C(C)O[C@@H](OC3C(C)OC(O[C@H]4CC[C@@]5(C)C(CCC6C5CC(O)[C@]5(C)[C@@H](C7=CC(=O)OC7)CC[C@]65O)C4)C[C@@H]3O)C[C@@H]2O)O1 (stereo in doubt) [DcPe, 4-((3S,5R,8R,9S,10S,12R,13S,14S,17R)-3-(((2S,4S,5R,6R)-5-(((2S,4S,5S,6R)-5-((4-cyclopentyl-2-methyl-1,4-oxazepan-7-yl)oxy)-4-hydroxy-6-methyltetrahydro-2H-pyran-2-yl)oxy)-4-hydroxy-6-methyltetrahydro-2H-pyran-2-yl)oxy)-12,14-dihydroxy-10,13-dimethylhexadecahydro-1H-cyclopenta[a]phenanthren-17-yl)furan-2(5H)-one]	5		
CC1CN(CC(F)(F)F)CCC(O[C@@H]2[C@H](C)O[C@@H](O[C@@H]3[C@H](C)O[C@@H](O[C@H]4CC[C@@]5(C)C(CCC6C5C[C@H](O)[C@]5(C)[C@@H](C7=CC(=O)OC7)CC[C@]65O)C4)C[C@@H]3O)C[C@@H]2O)O1 (stereo partly drawn) [DCF3]	9.6	4.1	
CC1CN(CCS(C)(=O)=O)CCC(O[C@@H]2C(C)O[C@@H](OC3C(C)OC(O[C@H]4CC[C@@]5(C)C(CCC6C5CC(O)[C@]5(C)[C@@H](C7=CC(=O)OC7)CC[C@]65O)C4)C[C@@H]3O)C[C@@H]2O)O1 (stereo in doubt) [DESM, 4-((3S,5R,8R,9S,10S,12R,13S,14S,17R)-12,14-dihydroxy-3-(((2S,4S,5R,6R)-4-hydroxy-5-(((2S,4S,5S,6R)-4-hydroxy-6-methyl-5-((2-methyl-4-(2-(methylsulfonyl)ethyl)-1,4-oxazepan-7-yl)oxy)tetrahydro-2H-pyran-2-yl)oxy)-6-methyltetrahydro-2H-pyran-2-yl)oxy)-10,13-dimethylhexadecahydro-1H-cyclopenta[a]phenanthren-17-yl)furan-2(5H)-one]		9.4	
CC1CN(C2CC2)CCC(O[C@@H]2C(C)O[C@@H](O[C@@H]3C(C)O[C@@H](O[C@H]4CC[C@@]5(C)C(CCC6C5CC(O)[C@]5(C)[C@@H](C7=CC(=O)OC7)CC[C@]65O)C4)C[C@@H]3O)C[C@@H]2O)O1 (stereo in doubt) [DcP, 4-((3S,5R,8R,9S,10S,12R,13S,14S,17R)-3-(((2R,4S,5S,6R)-5-(((2S,4S,5S,6R)-5-((4-cyclopropyl-2-methyl-1,4-oxazepan-7-yl)oxy)-4-hydroxy-6-methyltetrahydro-2H-pyran-2-yl)oxy)-4-hydroxy-6-methyltetrahydro-2H-pyran-2-yl)oxy)-12,14-dihydroxy-10,13-dimethylhexadecahydro-1H-cyclopenta[a]phenanthren-17-yl)furan-2(5H)-one]		7.5	
CC1CN(Cc2ccccc2)CCC(O[C@@H]2C(C)O[C@@H](OC3C(C)OC(O[C@H]4CC[C@@]5(C)C(CCC6C5CC(O)[C@]5(C)[C@@H](C7=CC(=O)OC7)CC[C@]65O)C4)C[C@@H]3O)C[C@@H]2O)O1 (stereo in doubt) [DBz, 4-((3S,5R,8R,9S,10S,12R,13S,14S,17R)-3-(((2S,4S,5R,6R)-5-(((2S,4S,5S,6R)-5-((4-benzyl-2-methyl-1,4-oxazepan-7-yl)oxy)-4-hydroxy-6-methyltetrahydro-2H-pyran-2-yl)oxy)-4-hydroxy-6-methyltetrahydro-2H-pyran-2-yl)oxy)-12,14-dihydroxy-10,13-dimethylhexadecahydro-1H-cyclopenta[a]phenanthren-17-yl)furan-2(5H)-one]	10-12	5.7	
CC1CN(CCS(N)(=O)=O)CCC(O[C@@H]2C(C)O[C@@H](OC3C(C)OC(O[C@H]4CC[C@@]5(C)C(CCC6C5CC(O)[C@]5(C)[C@@H](C7=CC(=O)OC7)CC[C@]65O)C4)C[C@@H]3O)C[C@@H]2O)O1 (stereo in doubt) [DESA, 2-(7-(((2R,3S,4S,6S)-6-(((2R,3R,4S,6S)-6-(((3S,5R,8R,9S,10S,12R,13S,14S,17R)-12,14-dihydroxy-10,13-dimethyl-17-(5-oxo-2,5-dihydrofuran-3-yl)hexadecahydro-1H-cyclopenta[a]phenanthren-3-yl)oxy)-4-hydroxy-2-methyltetrahydro-2H-pyran-3-yl)oxy)-4-hydroxy-2-methyltetrahydro-2H-pyran-3-yl)oxy)-2-methyl-1,4-oxazepan-4-yl)ethanesulfonamide]	15	7.7	
